# Target: recombinant human SYK (GST-hSYK fusion protein) (Homo sapiens, UniProt P43405)
# Assay: biochemical
# Details: rhSYK Activity, Table 21
# From the text: Homogeneous Time-Resolved Fluorescence (HTRF) Assay for the Recombinant Human SYK Enzyme:
row,IC50 [nM],SMILES
1,< 100,FC(F)(F)c1ccnc(Nc2cccc(-c3cnc(C4COCCO4)s3)c2)n1 (centres unmarked) [Example 21-15]
2,< 100,CN1CC(c2ncc(-c3cccc(Nc4nccc(C(F)(F)F)n4)c3)s2)CCC1=O (centres unmarked) [Example 21-17]
3,100 to 1000,CN1CCCCCC1c1ncc(-c2cccc(Nc3nccc(C(F)(F)F)n3)c2)s1 (centres unmarked) [Example 21-18]

# Same assay, conditions: rhSYK Activity, Table 27
row,IC50 [nM],SMILES
1,< 100,OC(c1ncc(-c2cc(NCC(F)(F)F)cc(Nc3nccc(C(F)(F)F)n3)c2)s1)C(F)F (centres unmarked) [Example 27-1]
2,< 100,CC(O)(c1ncc(-c2cc(NCC(F)(F)F)cc(Nc3nccc(C(F)(F)F)n3)c2)s1)C(F)(F)F (centres unmarked) [Example 27-2]

# Same assay, conditions: rhSYK Activity, Table 33-A
row,IC50 [nM],SMILES
1,< 100,Cc1cc(Nc2ncc(F)cn2)cc(-c2cnc(C3(O)CCC(C)(C(=O)O)CC3)s2)c1 (centres unmarked) [Example 33A-3]
2,< 100,Cc1cc(Nc2ncc(F)cn2)cc(-c2cnc([C@]3(O)CC[C@](C)(C(=O)O)CC3)s2)c1 [Example 33A-4]
3,< 100,Cc1cc(Nc2nccc(C(F)(F)F)n2)cc(-c2cnc([C@]3(O)CC[C@H](C(=O)O)CC3)s2)c1 [Example 33A-8]
4,< 100,Cc1cc(Nc2nccc(C(F)(F)F)n2)cc(-c2cnc(C3(O)CCC(C(=O)O)(c4ccccc4)CC3)s2)c1 (centres unmarked) [Example 33A-9]
5,100 to 1000,CCOC(=O)C1(C)CCC(O)(c2ncc(-c3cc(C)cc(Nc4nccc(C(F)(F)F)n4)c3)s2)CC1 (centres unmarked) [Example 33A-11]
6,< 100,Cc1cc(Nc2nccc(C(F)(F)F)n2)cc(-c2cnc([C@]3(O)CC[C@](C)(C(=O)O)CC3)s2)c1 [Example 33A-12]
7,< 100,Cc1cc(Nc2nccc(C(F)(F)F)n2)cc(-c2cnc(C3(O)CCC(C)(C(=O)O)CC3)s2)c1 (centres unmarked) [Example 33A-13]
8,< 100,COC(=O)C1(NC(C)=O)CCC(O)(c2ncc(-c3cc(C)cc(Nc4nccc(C(F)(F)F)n4)c3)s2)CC1 (centres unmarked) [Example 33A-14]
9,< 100,CC(=O)NC1(C(=O)O)CCC(O)(c2ncc(-c3cc(C)cc(Nc4nccc(C(F)(F)F)n4)c3)s2)CC1 (centres unmarked) [Example 33A-15]
10,< 100,Cc1cc(Nc2nccc(C(F)(F)F)n2)cc(-c2cnc([C@]3(O)CC[C@H](CC(=O)O)CC3)s2)c1 [Example 33A-16]
11,< 100,Cc1cc(Nc2nccc(C(F)(F)F)n2)cc(-c2cnc(C3(O)CCC(CCC(=O)O)CC3)s2)c1 (centres unmarked) [Example 33A-18]
12,< 100,CCOC(=O)CCC1CCC(O)(c2ncc(-c3cc(C)cc(Nc4nccc(C(F)(F)F)n4)c3)s2)CC1 (centres unmarked) [Example 33A-21]
13,< 100,O=C(O)[C@H]1CC[C@@](O)(c2ncc(-c3cc(Cl)cc(Nc4nccc(C(F)(F)F)n4)c3)s2)CC1 [Example 33A-22]
14,< 100,O=C(O)[C@H]1CC[C@@](O)(c2ncc(-c3cccc(Nc4nccc(C(F)(F)F)n4)c3)s2)CC1 [Example 33A-23]
15,< 100,O=C(O)[C@H]1CC[C@](O)(c2ncc(-c3cccc(Nc4nccc(C(F)(F)F)n4)c3)s2)CC1 [Example 33A-24]
16,< 100,CCOC(=O)[C@H]1CC[C@](O)(c2ncc(-c3cccc(Nc4nccc(C(F)(F)F)n4)c3)s2)CC1 [Example 33A-25]
17,100 to 1000,CCOC(=O)[C@H]1CC[C@@](O)(c2ncc(-c3cccc(Nc4nccc(C(F)(F)F)n4)c3)s2)CC1 [Example 33A-26]
18,100 to 1000,Cc1cc(Nc2nccc(C(C)C)n2)cc(-c2cnc([C@]3(O)CC[C@@H](C(=O)OC(C)(C)C)CC3)s2)c1 [Example 33A-29]
19,< 100,Cc1cc(Nc2nccc(C)n2)cc(-c2cnc([C@]3(O)CC[C@@H](C(=O)O)CC3)s2)c1 [Example 33A-30]

row,IC50 [nM],SMILES
1,< 100,Cc1cc(Nc2nccc(C)n2)cc(-c2cnc([C@]3(O)CC[C@H](C(=O)O)CC3)s2)c1 [Example 33A-31]
2,< 100,Cc1cc(Nc2nccc(C)n2)cc(-c2cnc(C3(O)CCC(CC(=O)O)CC3)s2)c1 (centres unmarked) [Example 33A-32]
3,100 to 1000,Cc1cc(Nc2nccc(OC(C)C)n2)cc(-c2cnc([C@]3(O)CC[C@@H](C(=O)OC(C)(C)C)CC3)s2)c1 [Example 33A-34]
4,< 100,COc1ccnc(Nc2cc(C)cc(-c3cnc(C4(O)CCC(C(=O)O)CC4)s3)c2)n1 (centres unmarked) [Example 33A-35]
5,< 100,COc1ccnc(Nc2cc(C)cc(-c3cnc([C@]4(O)CC[C@](C)(C(=O)O)CC4)s3)c2)n1 [Example 33A-38]
6,< 100,COC(=O)C1CCC(O)(c2ncc(-c3cc(C)cc(Nc4ncc(F)c(C5CC5)n4)c3)s2)CC1(C)C (centres unmarked) [Example 33A-39]
7,< 100,Cc1cc(Nc2ncc(F)c(C3CC3)n2)cc(-c2cnc(C3(O)CCC(C(=O)O)C(C)(C)C3)s2)c1 (centres unmarked) [Example 33A-40]
8,100 to 1000,Cc1cc(Nc2ncc(F)cn2)cc(-c2cnc(C3(O)CCC(C(=O)O)C(C)(C)C3)s2)c1 (centres unmarked) [Example 33A-45]
9,< 100,CC(C)(O)c1cc(Nc2nccc(C(F)(F)F)n2)cc(-c2cnc(C3(O)CCC(C(=O)O)C(C)(C)C3)s2)c1 (centres unmarked) [Example 33A-48]
10,< 100,COC(=O)C1CCC(O)(c2ncc(-c3cc(COC(C)=O)cc(Nc4nccc(C(F)(F)F)n4)c3)s2)CC1(C)C (centres unmarked) [Example 33A-49]
11,100 to 1000,COC(=O)C1CCC(O)(c2ncc(-c3cc(Nc4nccc(C(F)(F)F)n4)cc(C(F)F)c3)s2)CC1(C)C (centres unmarked) [Example 33A-55]
12,< 100,CC1(C)CC(O)(c2ncc(-c3cc(Nc4nccc(C(F)(F)F)n4)cc(C(F)F)c3)s2)CCC1C(=O)O (centres unmarked) [Example 33A-56]
13,< 100,COC(=O)C1CCC(O)(c2ncc(-c3cc(Nc4nccc(C(F)(F)F)n4)cc(C4CC4)c3)s2)CC1(C)C (centres unmarked) [Example 33A-61]
14,100 to 1000,COC(=O)C1CCC(O)(c2ncc(-c3cccc(Nc4nccc(C(F)(F)F)n4)c3)s2)CC1(C)C (centres unmarked) [Example 33A-65]
15,< 100,COC(=O)C1CCC(O)(c2ncc(-c3cc(C)cc(Nc4nccc(C)n4)c3)s2)CC1(C)C (centres unmarked) [Example 33A-69]
16,< 100,COC(=O)C1CCC(O)(c2ncc(-c3cc(C)cc(Nc4nccc(C5CC5)n4)c3)s2)CC1(C)C (centres unmarked) [Example 33A-70]
17,< 100,Cc1cc(Nc2nccc(C3CC3)n2)cc(-c2cnc(C3(O)CCC(C(=O)O)C(C)(C)C3)s2)c1 (centres unmarked) [Example 33A-71]
18,< 100,Cc1cc(Nc2nccc(C(F)(F)F)n2)cc(-c2cnc(C3(O)CCC(C(=O)O)C(C)(C)C3C)s2)c1 (centres unmarked) [Example 33A-75]

# Same assay, conditions: rhSYK Activity, Table 33B
row,IC50 [nM],SMILES
1,< 100,Cc1cc(Nc2nccc(C(F)(F)F)n2)cc(-c2cnc(C3(O)CC(C(=O)O)C3)s2)c1 (centres unmarked) [Example 33B-1]
2,< 100,Cc1cc(Nc2nccc(C(F)(F)F)n2)cc(-c2cnc(C3(O)CCCC(C(=O)O)C(C)(C)C3)s2)c1 (centres unmarked) [Example 33B-11]
3,< 100,Cc1cc(Nc2nccc(C)n2)cc(-c2cnc(C3(O)CCC(C(=O)O)C(C(C)C)C3)s2)c1 (centres unmarked) [Example 33B-35]
4,< 100,Cc1cc(Nc2nccc(C)n2)cc(-c2cnc(C3(O)CCC(C(=O)O)C(c4ccccc4)C3)s2)c1 (centres unmarked) [Example 33B-37]

# Same assay, conditions: rhSYK Activity, Table 33C
row,IC50 [nM],SMILES
1,< 100,Cc1cc(Nc2nccc(C(F)(F)F)n2)cc(-c2cnc(C3(O)CC4(CC(C(=O)O)C4)C3)s2)c1 (centres unmarked) [Example 33C-1]
2,< 100,Cc1cc(Nc2nccc(C(F)(F)F)n2)cc(-c2cnc(C3(O)CC4CCC(C3)C4C(=O)O)s2)c1 (centres unmarked) [Example 33C-2]
3,< 100,Cc1cc(Nc2nccc(C(F)(F)F)n2)cc(-c2cnc(C3(O)C4CCCC3CC(C(=O)O)C4)s2)c1 (centres unmarked) [Example 33C-3]
4,< 100,Cc1cc(Nc2nccc(C(F)(F)F)n2)cc(-c2cnc(C3(O)CC[C@H]4C(C(=O)O)[C@H]43)s2)c1 (some centres unmarked) [Example 33C-6]
5,< 100,Cc1cc(Nc2nccc(C(F)(F)F)n2)cc(-c2cnc(C3(O)C[C@@H]4C(C(=O)O)[C@@H]4C3)s2)c1 (some centres unmarked) [Example 33C-9]
6,< 100,CCOC(=O)C1[C@H]2CC(O)(c3ncc(-c4cc(C)cc(Nc5nccc(C(F)(F)F)n5)c4)s3)C[C@@H]12 (some centres unmarked) [Example 33C-11]
7,< 100,Cc1cc(Nc2nccc(C(F)(F)F)n2)cc(-c2cnc(C3(O)CNC3)s2)c1 [Example 33C-13]
8,< 100,Cc1cc(Nc2nccc(C(F)(F)F)n2)cc(-c2cnc(C3(O)CCN(c4ncccc4C(=O)O)CC3)s2)c1 [Example 33C-15]
9,100 to 1000,CCOC(=O)c1cccnc1N1CCC(O)(c2ncc(-c3cc(C)cc(Nc4nccc(C(F)(F)F)n4)c3)s2)CC1 [Example 33C-16]
10,< 100,Cc1cc(Nc2nccc(C)n2)cc(-c2cnc(C3(O)CCC4(CC3)OCCO4)s2)c1 [Example 33C-17]
11,< 100,Cc1cc(Nc2nccc(C)n2)cc(-c2cnc(C3(O)CC4CCC3CC4C(=O)O)s2)c1 (centres unmarked) [Example 33C-18]

# Same assay, conditions: rhSYK Activity, Table 33D
row,IC50 [nM],SMILES
1,< 100,Cc1cc(Nc2nccc(C(F)(F)F)n2)cc(-c2cnc(C(C)(O)CCC(C)(C)C(=O)O)s2)c1 (centres unmarked) [Example 33D-1]
2,< 100,COC(=O)C(C)(C)CCC(C)(O)c1ncc(-c2cc(C)cc(Nc3nccc(C(F)(F)F)n3)c2)s1 (centres unmarked) [Example 33D-4]
3,< 100,Cc1cc(Nc2nccc(C(F)(F)F)n2)cc(-c2cnc(C(C)(O)COC(C)(C)C(=O)O)s2)c1 (centres unmarked) [Example 33D-7]
4,< 100,COC(=O)C(C)(C)OCC(C)(O)c1ncc(-c2cc(C)cc(Nc3nccc(C(F)(F)F)n3)c2)s1 (centres unmarked) [Example 33D-8]
5,< 100,Cc1cc(Nc2nccc(C(F)(F)F)n2)cc(-c2cnc(C(C)(O)CC(C)(C)C(=O)O)s2)c1 (centres unmarked) [Example 33D-9]
6,< 100,Cc1cc(Nc2nccc(C(F)(F)F)n2)cc(-c2cnc(C(C)(O)CCC(=O)O)s2)c1 (centres unmarked) [Example 33D-10]
7,< 100,Cc1cc(Nc2nccc(C(F)(F)F)n2)cc(-c2cnc(C(C)(O)c3ccccc3OCC(=O)O)s2)c1 (centres unmarked) [Example 33D-11]
8,< 100,Cc1cc(Nc2nccc(C(F)(F)F)n2)cc(-c2cnc(C(C)(O)c3ccc(OCC(=O)O)cc3)s2)c1 (centres unmarked) [Example 33D-12]
9,< 100,Cc1cc(Nc2nccc(C(F)(F)F)n2)cc(-c2cnc(C(C)(O)c3ccc(OC(C)C(=O)O)cc3)s2)c1 (centres unmarked) [Example 33D-13]
10,< 100,COC(=O)c1ccc(C(C)(O)c2ncc(-c3cc(C)cc(Nc4nccc(C(F)(F)F)n4)c3)s2)cc1 (centres unmarked) [Example 33D-17]
11,< 100,Cc1cc(Nc2nccc(C(F)(F)F)n2)cc(-c2cnc(C(C)(O)Cc3ccc(C(=O)O)cc3)s2)c1 (centres unmarked) [Example 33D-18]

# From US8551984B2, “Aminopyrimidines as SYK inhibitors” (Merck Sharp & Dohme Corp., priority 2009, dated 2013)
